# According to patent US20160045612A1, “FUNCTIONALIZED NANOPARTICLES FOR MEDICAL TREATMENTS” (UNIVERSITY OF MASSACHUSETTS, priority 2013, published 2016):
# Structures can show the parent of a compound that is named as a salt.
# Tested on: engineered Str^r mutant E. coli ORN 208
# Assay: minimal inhibitory concentration (MIC) against streptomycin-resistant E. coli
# Format: cell-based, Escherichia coli
# Protocol: The diverse particle size affects inhibition and control. Silica nanoparticles were synthesized with an average of 80, 50 and 30 nm. Streptomycin was conjugated via photocoupling method through perfluorophenyl azide (PFPA) chemistry. The MIC for free streptomycin sulfate was recorded as a high 2.0 mg/mL for an engineered Str^r mutant E. coli ORN 208.
# It is reasonable to hypothesize that the more nanoparticles internalize into the bacteria the greater the effect of the antibiotic. […] The comparative difference of the streptomycin that can exert MIC is shown in FIG. 9 for the engineered Str^r mutant E. coli ORN 208 .
compound,measurement,setting,value
"[H]/N=C(/N)N[C@H]1[C@H](O)[C@@H](O)[C@H](O[C@@H]2O[C@@H](C)[C@](O)(C=O)[C@H]2O[C@@H]2O[C@@H](CO)[C@H](O)[C@@H](O)[C@@H]2NC)[C@@H](N/C(N)=N\[H])[C@@H]1O [free streptomycin sulfate, Streptomycin sulfate]",MIC,"Escherichia coli, read-out: minimum inhibitory concentration (MIC)",2000 µg/mL
same,minimum inhibitory concentration (MIC),"streptomycin resistant E. coli, MIC as streptomycin",2000 µg/mL
